From patent EP4722236A1, “INSULIN DERIVATIVE AND USE THEREOF” (The United Bio-Technology (Hengqin) Co., Ltd., priority 2023, dated 2024)
pKd: −log10 of the molar value.

Assays:
normal SD rats = assay: Pharmacodynamic study in normal SD rats (blood glucose, single subcutaneous dose); assay type: in vivo; conditions: for Blood Glucose Levels: Table 4.2, SD rats, 650 nmol/kg s.c. single dose, Mean ± SEM, n = 8
Method: Normal male SD rats aged 8-9 weeks, body weight 280-320 g, were selected. Animals were housed in animal housing facilities with strictly controlled environmental conditions, where the temperature is maintained between 20°Cand 24°C and humidity was kept between 30 and 70%. During the experiment, animals were housed individually with free access to food and water.
After one week of adaptive feeding, the experiment commenced. Rats were assigned to Solvent group 1, Solvent group 2, and the treatment group based on body weight and blood glucose levels before administration, with eight rats per group. The administered doses were all 650 nmol/kg.
The above drugs were dissolved in the solvent to a concentration of 216.7 nmol/mL. The dosing volume is 3 mL/kg. For a single subcutaneous administration, with the administration time set as 0 hours, blood glucose levels were measured at 0 h before dosing, and at 4 h, 8 h, 24 h, 28 h, 48 h, 72 h, 96 h, and 120 h after dosing (without dietary restrictions).

[1] = target: T1, human serum albumin (HSA) (Homo sapiens, UniProt P02768); conditions: hsa on cm5 chip
T1 sequence (P02768 25-609): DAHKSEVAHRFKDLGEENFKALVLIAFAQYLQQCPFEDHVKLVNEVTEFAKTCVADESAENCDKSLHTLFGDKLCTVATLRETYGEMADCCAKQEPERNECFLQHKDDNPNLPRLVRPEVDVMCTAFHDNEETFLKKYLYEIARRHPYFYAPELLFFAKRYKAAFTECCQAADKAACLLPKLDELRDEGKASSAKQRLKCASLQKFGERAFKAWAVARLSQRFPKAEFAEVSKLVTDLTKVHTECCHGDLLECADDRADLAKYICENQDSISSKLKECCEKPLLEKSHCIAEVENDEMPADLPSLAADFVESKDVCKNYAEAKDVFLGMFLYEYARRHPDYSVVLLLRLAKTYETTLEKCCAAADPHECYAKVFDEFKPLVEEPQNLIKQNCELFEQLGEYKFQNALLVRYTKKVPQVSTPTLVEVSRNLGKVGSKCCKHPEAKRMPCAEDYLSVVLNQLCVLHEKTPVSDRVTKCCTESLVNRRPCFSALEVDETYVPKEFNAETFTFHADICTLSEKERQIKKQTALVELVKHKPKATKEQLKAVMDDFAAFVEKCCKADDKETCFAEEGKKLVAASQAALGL
Method: (§1) According to the instructions for the Amine Coupling Kit, Type 2 (Cytiva), immobilize human serum albumin onto the surface of the CM5 sensor chip of the S Series. […] Human serum albumin (HSA) was diluted to 20 µg/mL with acetic acid solution of pH 4.5. The EDC/NHS mixture solution, HSA protein solution, and 1M ethanolamine-hydrochloric acid solution were added to the detection plate according to the program settings. b) The detection plate was placed into the Biacore 8K sample compartment. The EDC/NHS mixture solution, HSA protein solution, and 1M ethanolamine-hydrochloric acid solution were sequentially injected into the channels on the surface of the CM5 chip by the Biacore 8K according to the program. Through this process, the chip was activated, the ligand was coupled, and the chip was deactivated. Each channel consists of two circulation pools, with circulation pool 1 serving as the reference channel undergoing only surface activation and deactivation without injection of HSA protein solution.
(§2) The detection plate was placed into the sample compartment of the Biacore 8K, with the running buffer serving as the 0-concentration reference sample. c) Run the detection program, with samples sequentially injected into each channel of the chip according to the program.
(§3) Finally, the data was analyzed using BiaCore Insight Evaluation Software, employing a 1:1 binding model for analysis.

[2] = target: T1, human serum albumin (HSA); assay: In vitro binding to HSA via SPR (Biacore 8K)
Method: as §1, §2, §3

[3] = HSA on CM5 chip, 1:1 binding model

- pKd [1]: 3.56
- ka [2, 3]: 612 M⁻¹ s⁻¹
- kd [2, 3]: 0.169 s⁻¹
Substance: A14E, B16H, B25H, B29K (N^ε-[1-(19-Carboxyl-nonadecyloxy)-β-D-glucuronyl]-γGlu-[2-(2-{2-[2-(2-Aminoethoxy) ethoxy]acetylamino}ethoxy)ethoxy]acetyl), desB27, desB30 human insulin [Compound 4]
- Blood Glucose Levels (normal SD rats; 0 h (before dosing)): 7.3 ± 0.1
- Blood Glucose Levels (normal SD rats; 4 h): 3.6±0.3
- Blood Glucose Levels (normal SD rats; 24 h): 4.2±0.4
- Blood Glucose Levels (normal SD rats; 48 h): 4.4±0.5
- Blood Glucose Levels (normal SD rats; 72 h): 6.6±0.5
- Blood Glucose Levels (normal SD rats; 96 h): 7.8±0.1
- Blood Glucose Levels (normal SD rats; 120 h): 7.5 ± 0.1
- hypoglycemic effect (normal SD rats; comparison in words with Icodec, SD rats, s.c.): superior to Icodec
- binding affinity to HSA ([2]; comparison in words with Icodec, SPR): superior binding affinity to HSA compared to Icodec
